Measured values: ChEMBL document CHEMBL4376803, “Recent Advances in the Exploration of Therapeutic Analogues of Gramicidin S, an Old but Still Potent Antimicrobial Peptide” (J Med Chem, 2019)
In brackets after ≈: the same amount, converted by molar mass. Each block holds one molecule with its values, some of them ahead of it. Numbered stars: 1 amine (or outer) side, 2 acyl side, 3 side chain; on linkers, the order of the positions; unused ones are H or OH. Square brackets hold non-standard residues; d marks the D form. Peptide text beside a SMILES is read from it. X1 = Cc1nc([C@@H](Cc2ccccc2)N[*:1])c(C(=O)[*:2])s1; Orn = NCCC[C@H](N)C(=O)O

Legend:
[1] = test system: Staphylococcus aureus; assay: Antibacterial activity against Staphylococcus aureus ATCC 49975 after 16 to 20 hrs by broth microdilution method; type: functional
[2] = test system: Erythrocyte; assay: (§1) Haemolytic activity in human erythrocytes; type: ADME, cell-based; conditions: erythrocyte
[3] = test system: Escherichia coli; assay: Antibacterial activity against Escherichia coli ATCC 25922; type: functional
[4] = Therapeutic index, ratio of HD100 for hemolytic activity in human erythrocytes to MIC against Pseudomonas aeruginosa ATCC 27853; type: toxicity, cell-based; conditions: read-out: TI
[5] = Therapeutic index, ratio of HD100 for hemolytic activity in human erythrocytes to MIC against Escherichia coli ATCC 25922; type: toxicity, cell-based; conditions: read-out: TI
[6] = test system: Pseudomonas aeruginosa; assay: Antibacterial activity against Pseudomonas aeruginosa ATCC 27853; type: functional
[7] = Therapeutic index, ratio of HD100 for hemolytic activity in human erythrocytes to MIC against Staphylococcus aureus ATCC 29213; type: toxicity, cell-based; conditions: read-out: TI
[8] = Therapeutic index, ratio of HD100 for hemolytic activity in human erythrocytes to MIC against Enterococcus faecalis ATCC 29212; type: toxicity, cell-based; conditions: read-out: TI
[9] = test system: Staphylococcus aureus; assay: Antibacterial activity against Staphylococcus aureus ATCC 29213; type: functional
[10] = test system: Enterococcus faecalis; assay: Antibacterial activity against Enterococcus faecalis ATCC 29212; type: functional
[11] = Haemolytic activity in human RBC after 4 hrs; type: ADME, cell-based, Erythrocyte; conditions: human red blood cells
[12] = as §1; type: ADME, cell-based, Erythrocyte; conditions: human erythrocytes
[13] = test system: Staphylococcus aureus; assay: Antibacterial activity against Staphylococcus aureus; type: functional
[14] = test system: Staphylococcus epidermidis; assay: Antibacterial activity against Staphylococcus epidermidis; type: functional
[15] = test system: Staphylococcus xylosus; assay: Antibacterial activity against Staphylococcus xylosus; type: functional
[16] = test system: Enterococcus faecalis; assay: Antibacterial activity against Enterococcus faecalis ATCC 29212 after overnight incubation by microtiter dilution method; type: functional
[17] = test system: Escherichia coli; assay: Antibacterial activity against Escherichia coli UB1005 after overnight incubation by microtiter dilution method; type: functional
[18] = Therapeutic index, ratio of HD100 for hemolytic activity in human RBC to MIC against Staphylococcus aureus K147; type: toxicity; conditions: human red blood cells, read-out: TI
[19] = Therapeutic index, ratio of HD100 for hemolytic activity in human RBC to MIC against Pseudomonas aeruginosa H187; type: toxicity; conditions: human red blood cells, read-out: TI
[20] = Therapeutic index, ratio of HD100 for hemolytic activity in human RBC to MIC against Candida albicans; type: toxicity; conditions: human red blood cells, read-out: TI
[21] = test system: Staphylococcus aureus; assay: Antibacterial activity against Staphylococcus aureus K147 after overnight incubation by microtiter dilution method; type: functional
[22] = Therapeutic index, ratio of HD100 for hemolytic activity in human RBC to MIC against Escherichia coli UB1005; type: toxicity; conditions: human red blood cells, read-out: TI
[23] = test system: Pseudomonas aeruginosa; assay: Antibacterial activity against Pseudomonas aeruginosa H187 after overnight incubation by microtiter dilution method; type: functional
[24] = test system: Erythrocyte; assay: Haemolytic activity in human RBC after 24 hrs by visual method; type: ADME, cell-based
[25] = test system: Candida albicans; assay: Antibacterial activity against Candida albicans after overnight incubation by microtiter dilution method; type: functional
[26] = Therapeutic index, ratio of HD100 for hemolytic activity in human RBC to MIC against Enterococcus faecalis ATCC 29212; type: toxicity; conditions: human red blood cells, read-out: TI
[27] = target: Lipopolysaccharide (LPS); assay: Displacement of Dansyl-polymyxin from Pseudomonas aeruginosa LPS by fluorescence method; conditions: read-out: I50
[28] = Haemolytic activity in human erythrocytes at 100 ug/ml after 30 mins relative to control; type: ADME, cell-based, Erythrocyte; conditions: read-out: Activity
[29] = test system: Escherichia coli; assay: Antibacterial activity against Escherichia coli ATCC 8739 incubated for 48 hrs; type: functional; conditions: ATCC 8739, 48 h
[30] = test system: Pseudomonas aeruginosa; assay: Antibacterial activity against Pseudomonas aeruginosa ATCC 9027 incubated for 48 hrs; type: functional; conditions: ATCC 9027, 48 h
[31] = test system: Bacillus subtilis; assay: Antibacterial activity against Bacillus subtilis CIP 52.65 incubated for 48 hrs; type: functional; conditions: CIP 52.65, 48 h
[32] = test system: Staphylococcus aureus; assay: Antibacterial activity against Staphylococcus aureus ATCC 6538 incubated for 48 hrs; type: functional; conditions: ATCC 6538, 48 h

SMILES: NCCC[C@@H]1NC(=O)[C@H](C23CC4CC(CC(C4)C2)C3)NC(=O)[C@@H]2CCCN2C(=O)[C@@H](Cc2ccccc2)NC(=O)[C@H](C23CC4CC(CC(C4)C2)C3)NC(=O)[C@H](CCCN)NC(=O)[C@H](C23CC4CC(CC(C4)C2)C3)NC(=O)[C@@H]2CCCN2C(=O)[C@@H](Cc2ccccc2)NC(=O)[C@H](C23CC4CC(CC(C4)C2)C3)NC1=O
HC50 at 4 h [11]: 7.55 µg/mL

SMILES: CC(C)C[C@@H]1NC(=O)[C@H](CCCN)NC(=O)[C@H](C(C)C)NC(=O)[C@@H]2CCCN2C(=O)[C@@H](Cc2ccccc2)NC(=O)[C@H](CC(C)C)NC(=O)[C@H](CCCN)NC(=O)[C@H](C(C)C)NC(=O)C2=CC3=C4CCCC4=C4C=C(SC4(C)C3(C)S2)C(=O)NNC1=O (some centres not stated) [listing 1 of 2 here]
HC50 [12]: 58 µg/mL

SMILES: CC(C)C[C@@H]1NC(=O)[C@H](CCCN)NC(=O)[C@H](C(C)C)NC(=O)[C@@H]2CCCN2C(=O)[C@@H](Cc2ccccc2)NC(=O)[C@H](CC(C)C)NC(=O)[C@H](CCCN)NC(=O)[C@H](C(C)C)NC(=O)C2=CC3=C4CCCC4=C4C=C(SC4(C)C3(C)S2)C(=O)NNC1=O (some centres not stated) [listing 2 of 2 here]
MIC [13]: 16 µg/mL (≈ 12.9 µM)
MIC [14]: 32 µg/mL (≈ 25.8 µM)
MIC [15]: 32 µg/mL (≈ 25.8 µM)

Further lines, with some results ahead:

MIC [1]: 64 µg/mL (≈ 62.7 µM)
SMILES: CC(C)C[C@@H]1NC(=O)[C@@H](CCCN)NC(=O)[C@H](C(C)C)NC(=O)c2cccc(c2)/N=N\c2ccc(cc2)CNC(=O)[C@H](CCCN)NC(=O)[C@H](C(C)C)NC(=O)[C@@H]2CCCN2C(=O)[C@@H](Cc2ccccc2)NC1=O

MIC [3]: 16 µg/mL (≈ 10.1 µM)
MIC [6]: 8 µg/mL (≈ 5.05 µM)
MIC [9]: 4 µg/mL (≈ 2.52 µM)
MIC [10]: 8 µg/mL (≈ 5.05 µM)
SMILES: CC(C)C[C@@H]1NC(=O)[C@H](CCCN)NC(=O)[C@H](C(C)C)NC(=O)[C@@H]2CCCN2C(=O)[C@@H](Cc2ccccc2)NC(=O)[C@H](CC(C)C)NC(=O)[C@H](CCCN)NC(=O)[C@H](C(C)C)NC(=O)[C@H](CCCN)NC(=O)[C@H](CC(C)C)NC(=O)[C@H]2CC[C@H](OCc3ccccc3)[C@@H](CNC(=O)[C@H](C(C)C)NC(=O)[C@H](CCCN)NC1=O)O2
Activity [2]: 62.5 µg/mL
selectivity ratio [4]: 7.8
selectivity ratio [5]: 3.9
selectivity ratio [7]: 15.6
selectivity ratio [8]: 7.8

MIC [16]: 1.5 µg/mL (≈ 0.898 µM)
MIC [17]: 6.2 µg/mL (≈ 3.71 µM)
MIC [21]: 100 µg/mL (≈ 59.9 µM)
MIC [23]: 25 µg/mL (≈ 15 µM)
MIC [25]: 6.2 µg/mL (≈ 3.71 µM)
IC50 [27]: 93 µM
SMILES: CC(C)C[C@@H]1NC(=O)[C@H](CCCCN)NC(=O)[C@H](C(C)C)NC(=O)[C@@H]2CCCN2C(=O)[C@@H](Cc2ccc(O)cc2)NC(=O)[C@H](CC(C)C)NC(=O)[C@H](CCCCN)NC(=O)[C@H](C(C)C)NC(=O)[C@H](CCCCN)NC(=O)[C@H](CC(C)C)NC(=O)[C@@H]2CCCN2C(=O)[C@@H](Cc2ccc(O)cc2)NC(=O)[C@H](C(C)C)NC(=O)[C@@H](CCCCN)NC1=O (cyclo(KL[dK]V[dY]PLKVKL[dY]PV))
selectivity ratio [18]: 2
selectivity ratio [19]: 8
selectivity ratio [20]: 32
selectivity ratio [22]: 32
HD100 [24]: 200 µg/mL
selectivity ratio [26]: 133

MIC [29]: 25 µg/mL (≈ 21.9 µM)
MIC [30]: > 50 µg/mL
MIC [31]: 3.12 µg/mL (≈ 2.74 µM)
MIC [32]: 4.68 µg/mL (≈ 4.1 µM)
SMILES: Cc1nc2c(s1)C(=O)N[C@@H](C(C)C)C(=O)N[C@@H](CCCN)C(=O)N[C@@H](CC(C)C)C(=O)N[C@H](Cc1ccccc1)c1nc(C)sc1C(=O)N[C@@H](C(C)C)C(=O)N[C@@H](CCCN)C(=O)N[C@@H](CC(C)C)C(=O)N[C@@H]2Cc1ccccc1 (cyclo(L[X1]V[Orn]L[X1]V[Orn]))
hemolysis at 0.5 h, 100 ug/ml [28]: 14%
